Experimental data published in US12486255B2, “Modulators of RAS GTPase” (Tosk, Inc., priority 2018, dated 2025).
Where “and” joins values, the source holds several entries; their conditions need not be identical. Equal values may be shown once. Entries after “also recorded” stand apart in the source; their conditions may differ.

Columns and labels:
[1] = system: flies expressing G12V in their wing; test: Fly assay, wing phenotype reversal; format: in vivo, Drosophila
From the text: Each wing from mutant flies receiving treatment with either water or compound received a score from two independent scorers according to the scheme outlined in the schematic. The analysis of the scores given to the compound group was compared to the scores given for the control (water) group.
Embryo preparation. GAL4 virgin ♀ were collected over a period of 3-5 days, then crossed with kRAS G12V (3M) ♂ inside a plastic condo supplied with grape agar containing yeast paste. Flies were acclimated for 2 days and embryos present after a span of 4-5 hours were collected along with the agar plate and incubated for 24 hours. The next day, embryos were washed off the agar plate with Embryo Wash solution (120 mM NaCl, 0.03% Triton X) and resuspended in Embryo Inoculation solution (120 mM NaCl, 420 mM Sucrose, 0.05% Triton X-100). Embryos were counted and diluted to 15 embryos/10 μL. 150 embryos (100 μL) were dispensed into each vial.
Food-drug admix preparation. Each fly vial contains 1.5 g of fly food in 4 ml water. The quantity of drug needed is calculated for a total of 4 vials, each vial containing 10 μM of Structure 2. This is equivalent to 0.014 mg of Structure 2/vial, for a total of 0.056 mg of Structure 2.
A stock solution of 0.1 mg/mL Structure 2 in ethanol is prepared. A 500-ml round bottom flask is charged with 6 g of fly food (1.5 g×4), to which is added 20 mL of ethanol, ensuring that the food is entirely covered in solvent. To this heterogeneous solution is added an appropriate amount of Structure 2 stock solution, containing the calculated required quantity, in this case 0.56 mL stock solution.
The ethanol is evaporated under reduced pressure via a rotary evaporator equipped with a bump trap. The resulting dry food is added to three vials, each containing 1.5 g, so that the experiment is performed in triplicate. The quantity is calculated initially for 4 vials, because some food will be stuck to the walls of the round bottom flask and some is also invariably lost in the bump trap during the solvent evaporation step. Control vials lacking Structure 2 or Structure 3 are also analyzed and undergo the exact same food preparation and solvent extraction procedure.
Embryo addition to vials. After all the food-drug admix is prepared and added to the respective vials, to each vial is added 4 mL of water and the vial briefly vortexed. To this liquid mixture is added the embryo solution (100 μL), the vials capped and placed in an incubator or fly room.
Wing mounting and scoring. Flies hatch 10-12 days after the above experimental setup is performed. The resulting adult flies are submerged in a 3:1 70% ethanol:glycerol solution for 24 hours, then wings are dissected with curved Vannas spring scissors (FST #15001-08). The wings are mounted in an 80% glycerol solution on a microscope slide under coverslip seal.
Pictures of the wings were taken using an Accu-Scope microscope equipped with a digital camera and connected to a laptop containing the Accu-Scope Micrometric SE Premium software. The wings were scored according to the following scoring tree:
Wing score analysis. After each wing received a score from two independent scorers, the analysis of the scores given to the Structure 2 and 3 groups was compared to the scores given for the control group and was performed using the IBM SPSS software.
Wings that received a score of 3 or above are considered “reversed”, since their phenotype is closer to WT than to kRAS G12V bearing Drosophila. The findings are plotted in FIG. 9. […]

[2] = system: SW480 cells implanted into nu/nu mice; test: Xenograft study; format: in vivo, nude mice (nu/nu); details: SW480 subcutaneous tumors in nu/nu mice, 2 mg/kg ip, 24 days post treatment, p<0.028 Student's t-test
Method: FIG. 10 Effect of Structure 2 on growth of SW480 cells implanted into nu/nu mice. Boxplots showing tumor volumes in nude mice 24 days post treatment ip with either 2 mg/kg Structure 2 or vehicle control (DMSO). Subcutaneous tumors were induced by subcutaneous inoculation in the right flank of 3×10^6 human colon cancer cell line SW480 in Matrigel. Treatment with Structure 2 was initiated 6 days post tumor implantation. Structure 2 was administrated ip at 2 mg/kg, while control was given vehicle DMSO. All animals were sacrificed at day 30. […] In the Figure, (*) designates p<0.028 compared to vehicle control by Student's t-test.
Female nude mice (nu/nu) were purchased from Simonsen Laboratories (Gilroy, CA). All experiments were performed with 4 to 6-week-old female mice. Mice were housed in a barrier unit in the Tosk Animal facility, kept in filter-top cages with water and food provided ad libitum, and were checked at least twice a week for clinical signs of disease and discomfort. Subcutaneous tumors are induced by subcutaneous inoculation in the right flank of 3×10^6 human colon cancer cell line SW480 in Matrigel. The tumors are allowed to grow and volumes (mm^3) are calculated weekly from digital caliper measurements as 0.5×length×width^2. Treatment was initiated 6 days post tumor implantation. Structure 2 was administrated ip at 2 mg/kg, while control was given vehicle DMSO. […]

[3] = system: HT29; test: Cytotoxicity assay, HT29 cells; format: cell-based; details: human colon cancer cell line HT29
Method: Compounds were assayed for inhibition of cell proliferation and killing cancer cells. Cytotoxicity assays were conducted according to the following general procedure. SW480, SW48, SW900, SW620 were all maintained in Leibowitz L15 media supplemented with 10% fetal bovine serum and 1% PenStrep and grown in a 37° C. incubator without supplemental CO2. Capan-1 cells were maintained in Iscove's Modified Dulbecco's Medium (ATCC 30-2005) containing 20% fetal bovine serum and 1% PenStrep and grown in a 37° C. incubator containing 5% CO2.

## Cc1nc(-c2ccc(CNC(=O)c3cc(CC(C)C)nn3C)cc2)no1 [Structure 2, 3-isobutyl-1-methyl-N-(4-(5-methyl-1,2,4-oxadiazol-3-yl)benzyl)-1H-pyrazole-5-carboxamide]
[1]; 10 μmolar in fly food, control 1.86 ± 0.62
  Wing score, Scored 1-6, Mean ± SD: 2.15
[1]; Tukey HSD and LSD p<0.001, Mann Whitney p=0.002
  wing scores compared to the control group: significantly different from the control group
[1]; wings with score of 3 or above, Structure 2 at 10 μmolar, control 8.27
  Reversal Phenotype (%): 24% and 24.31%
[2]
  tumor volume versus vehicle control: statistically significant reduction in tumor volume; also recorded: mitigates the growth of SW480 cells
[3]
  not cytotoxic at concentrations up to: > 40 µM
